Reference: US5428013A, “Differential diagnosis and treatment of the states of growth hormone insufficiency (or deficiency) with an alpha-2-adrenergic agonist and a growth hormone releasing peptide” (priority 1992, dated 1995)
Where no end group is shown, it is not given here.

Tests used:
[1] = Growth velocity of short children treated with GH; format: in vivo; conditions: three children treated with GH for 9 months; increased from 3 cm/yr
Description: Twenty-four children (17 boys and 7 girls) with stature below the third percentile (P3), participated in the study with informed consent (parent and child). Ages of the children ranged from 7 to 13.9 years. In all but seven of the children, weight was more than or equal to P3. […] Two children had received prophylactic cranial irradiation due to brain tumors, five and three years before the study. Three children had been treated with GH for 9 months; their growth velocity increased during this therapy from 3 to 8 cm/yr. All children had been previously studied for their GH insufficiency. Studies included growth velocity, bone age, classical provocative tests for GH secretion (i.e. clonidine, insulin hypoglycemia and propranolol plus exercise), plasma somatomedin C (Sm C) (Insulin Growth Factor-I (IGF-I)) analysis, and analysis of the spontaneous pattern of nocturnal GH secretion. […] Mean (±SEM) plasma Sm C was 488±376 U/L. Mean (±SEM) growth velocity was 3.7±0.9 cm/yr.

GH secretion [2] = conditions: cited from earlier work
GH secretion [3] = assay: Provocative tests for GH secretion in short children (clonidine, propranolol plus exercise, insulinic hypoglycemia, placebo plus GHRH, clonidine plus GHRH); format: in vivo
Description: Twenty-four children (17 boys and 7 girls) with stature below the third percentile (P3), participated in the study with informed consent (parent and child). Ages of the children ranged from 7 to 13.9 years. In all but seven of the children, weight was more than or equal to P3. […] Two children had received prophylactic cranial irradiation due to brain tumors, five and three years before the study. […] All children had been previously studied for their GH insufficiency. Studies included growth velocity, bone age, classical provocative tests for GH secretion (i.e. clonidine, insulin hypoglycemia and propranolol plus exercise), plasma somatomedin C (Sm C) (Insulin Growth Factor-I (IGF-I)) analysis, and analysis of the spontaneous pattern of nocturnal GH secretion.
Studies commenced at 09.00 h after an overnight fast and bed rest and thirty minutes after the insertion of a nonthrombogenic catheter for blood withdrawal in a forearm vein. The study consisted of administering clonidine (Catapresan, Boehringer Ingelheim, Spain) orally at 150 micrograms/m^2 at time 0, followed by administering GHRH (GRF 1-29, Serono, Spain) as an intravenous bolus at 1 microgram/kg at time 60 minutes. An additional control for short children consisted of administering a placebo at time 0, followed by administering GHRH at time 60 minutes. Blood samples for GH analysis (RIA, BioMerieux, France) were taken at 0 and 60 minutes and at 15 minute intervals for one hour following GHRH administration. The mean intra-assay coefficient of variation was 5.7, 3.2 and 4.3% at mean GH concentrations of 1.5, 10 and 22 micrograms/L respectively. To avoid interassay variations, all samples from a subject were run in the same assay.
To confirm the uniqueness of such combined clonidine plus GHRH test in the differentiation of GH-deficient states, the theoretical GH responses to this test in short children were calculated on the basis of the equation obtained from the multiple regression analysis relating chronological and bone age with the amplitude of GH peaks in normal children. […] Responses between the -20 to +20% range were considered to be normals, as they fitted between the standard deviation from the mean in the group of normal children.

[4] = patient group 1, short children
[5] = patient group 2, short children
[6] = patient group 3, short children
[7] = patient group 4, short children
[8] = patient group 5, short children

| Molecule | Number of positive (+, >10 μg/L) GH responses (GH secretion [3]; [4]) | Number of positive (+, >10 μg/L) GH responses (GH secretion [3]; [5]) | Number of positive (+, >10 μg/L) GH responses (GH secretion [3]; [6]) | Number of positive (+, >10 μg/L) GH responses (GH secretion [3]; [7]) | Number of positive (+, >10 μg/L) GH responses (GH secretion [3]; [8]) | also measured |
| --- | --- | --- | --- | --- | --- | --- |
| GH: exogenous growth hormone given to three children for 9 months | – | – | – | – | – | Growth velocity during GH therapy [1]: 8 cm/yr |
| Clc1cccc(Cl)c1NC1=NCCN1 [clonidine, 2-(2,6-dichloroanilino)-2-imidazoline] | 0 | 4 | 2 | 3 | 1 | Effect on GHRH-induced GH secretion (GH secretion [2]; normal subjects, short, normal children and adults (literature)): enhances the GH response to GHRH; Share of children appearing GH-deficient on the basis of a low GH response (<10 μg/L) to the provocative test (GH secretion [3]; 24 short children, earlier work-up): 50%; Number of negative (-, <10 μg/L) GH responses (GH secretion [3]; [6]): 2; Effect of pretreatment with clonidine on the GH response to GHRH (GH secretion [3]; patient group 5, malnourished children): did not significantly enhance the GH response to GHRH |
| CN(C)C(=O)Oc1ccc[n+](C)c1 [pyridostigmine] | – | – | – | – | – | Usefulness as treatment of short stature (GH secretion [2]; literature (Ghigo 1989)): does not represent a useful treatment of short stature |
| GHRH: growth hormone-releasing hormone, used as GRF 1-29 (Serono, Spain), intravenous bolus (YADAIFTNSYRKVLGQLSARKLLQDIMSR; ends and bridges not checked; UniProt P01286 32-60, looked up, fragment) | 2 | 3 | 3 | 3 | 3 | Number of patients with deficient GHRH-induced GH response (GH peak <10 μg/L) (GH secretion [3]; 24 short children, pretreatment with placebo): 9 patients; Number of negative (-, <10 μg/L) GH responses (GH secretion [3]; [4]): 4; Number of negative (-, <10 μg/L) GH responses (GH secretion [3]; [5]): 2; Mean GH peak response to GHRH (GH secretion [3]; short children, placebo at time 0, GHRH i.v. bolus at 60 minutes): 19.5 ± 15.7 µg/L |
